One assay has as its target T1, TLR4 (Mus musculus, UniProt Q9JHF9+Q9QUK6).
T1 construct: endogenous in cells; host or cells: peritoneal macrophages from wild-type C57BL/6J mice
T1 sequence (Q9QUK6 26-835): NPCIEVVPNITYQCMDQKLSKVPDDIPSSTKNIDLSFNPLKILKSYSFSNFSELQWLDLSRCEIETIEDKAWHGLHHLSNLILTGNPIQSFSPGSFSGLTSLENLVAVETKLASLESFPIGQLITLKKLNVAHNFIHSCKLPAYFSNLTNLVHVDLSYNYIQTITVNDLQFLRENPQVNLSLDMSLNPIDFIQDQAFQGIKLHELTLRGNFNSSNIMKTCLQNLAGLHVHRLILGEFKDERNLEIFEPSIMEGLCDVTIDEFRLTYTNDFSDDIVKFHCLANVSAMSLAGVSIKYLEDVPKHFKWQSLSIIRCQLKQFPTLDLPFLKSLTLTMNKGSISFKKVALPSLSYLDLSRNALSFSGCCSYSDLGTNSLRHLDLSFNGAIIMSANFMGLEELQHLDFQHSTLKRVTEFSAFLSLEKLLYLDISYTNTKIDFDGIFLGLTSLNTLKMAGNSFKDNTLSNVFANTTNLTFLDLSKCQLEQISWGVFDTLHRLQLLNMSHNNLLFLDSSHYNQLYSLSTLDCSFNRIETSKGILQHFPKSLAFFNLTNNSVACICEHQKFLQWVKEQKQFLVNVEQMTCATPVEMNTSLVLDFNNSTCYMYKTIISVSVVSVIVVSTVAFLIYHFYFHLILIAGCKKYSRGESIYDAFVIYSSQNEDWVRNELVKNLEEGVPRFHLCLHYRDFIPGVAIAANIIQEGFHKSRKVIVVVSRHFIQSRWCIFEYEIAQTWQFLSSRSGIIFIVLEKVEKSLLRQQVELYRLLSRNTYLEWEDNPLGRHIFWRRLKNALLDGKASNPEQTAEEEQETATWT
T1 sequence (Q9JHF9 19-160): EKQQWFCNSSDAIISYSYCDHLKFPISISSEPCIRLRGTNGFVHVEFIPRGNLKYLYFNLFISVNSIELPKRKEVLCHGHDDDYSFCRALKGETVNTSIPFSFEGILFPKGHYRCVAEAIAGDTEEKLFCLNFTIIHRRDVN
As to the kind of experiment: OxPAPC-induced IL-6 gene expression in peritoneal macrophages. The class given is cell-based. As to conditions: pretreatment 10 ng/mL for 1 hour, OxPAPC 20 μg/mL. How it is done:
Wild-type C57BL/6J, TLR4^−/−, and TLR2^−/− peritoneal macrophages were pretreated with eritoran (10 ng/mL) for 1 hour and then treated with medium alone, LPS (20 ng/mL), P3C (300 ng/mL), or OxPAPC (20 μg/mL) and RNA expression was measured. Commercially obtained OxPAPC activated IL-6 gene expression in WT and TLR2^−/− mouse peritoneal macrophages, but not in cells from TLR4^−/− mice (FIG. 9). […] Data are means+/−s.e.m. from 1 experiment with samples done in triplicate (*p<0.001, #p<0.05).

Assay [1] deals with PR8. As to the kind of experiment: Influenza-induced cytokine and interferon mRNA in lungs of PR8-infected mice (real-time PCR). The assay is classed as in vivo. The settings on record: 200 μg/mouse i.v. starting on day 2.
The subject of another assay is influenza. As to the kind of experiment: Survival of influenza-infected TLR2−/− and CD14−/− mice. The assay is classed as in vivo. The settings on record: treated 2 days post-infection for 5 successive days. The source says:
Normal mice (WT), TLR4^−/−, TLR2^−/−, and CD14^−/− were infected with influenza and then were untreated (closed circles) or treated with eritoran (open circles) 2 days post-infection, for 5 successive days. (FIG. 13a). […] WT data were combined from 5 separate experiments (5-6 mice per treatment per experiment), TLR4^−/− data were combined from 3 separate experiments (5-6 mice per treatment per experiment), CD14^−/− data were combined from 2 separate experiments (4-5 mice per treatment per experiment). WT: untreated vs eritoran (p, 0.0001); TLR4^−/−: untreated vs. eritoran (p=ns); CD14^−/−: untreated vs. eritoran (p=ns); TLR2^−/−: untreated vs. eritoran (p=ns).

The subject of assay [2] is PR8. As to the kind of experiment: Survival of PR8-infected IFNβ−/− mice. The assay is classed as in vivo. The settings on record: ~7500 TCID50 PR8; treated 2 days post-infection for 5 successive days. The source says: Wild-type and IFNβ^−/− mice were infected with ˜7500 TCID50 PR8 and were left either untreated (circles) or treated with eritoran 2 days post-infection, for 5 successive days (squares). (FIG. 11). Data represent the combined results of 2 separate experiments (6 mice per treatment per experiment; WT: untreated vs. eritoran treatment (p<0.0013); IFNβ^−/−: untreated v. eritoran treatment (p=ns).

Assay [3] concerns PR8. As to the kind of experiment: Influenza-induced lung pathology in PR8-infected mice (H&E histology). As to conditions: ~7500 TCID50 PR8; 200 μg/mouse i.v. starting on day 2; day 7 post-infection. The assay is classed as in vivo. The protocol: Mice were infected i.n. with 50 μl of PR8 (˜7500 TCID50/mouse). Mice were then injected i.v. with 100 μl of eritoran (200 μg/mouse) starting on day 2 post-infection. Mice were then sacrificed on day 7 post-infection (day […] post-eritoran treatment) and lungs harvested for lung pathology (4 mice/treatment group). Murine lungs were inflated and perfused and fixed with 4% PFA. Fixed sections (8 μm) of paraffin-embedded lungs were stained with hematoxylin and eosin (H&E). Slides were randomized, read blindly, and examined for tissue damage, necrosis, apoptosis, and proinflammatory cellular infiltration. […] Pulse oximetry measurements were performed to confirm these observations.

Assay [4] deals with A/California/07/2009, H1N1. As to the kind of experiment: Direct antiviral effect: virus titration in MDCK cells.
Assay [5] deals with PR8. As to the kind of experiment: Lung viral titers in PR8-infected mice. The class given is in vivo. The settings on record: ~7500 TCID50 PR8, 200 μg/mouse i.v. starting on day 2.
Assay [6] deals with PR8. As to the kind of experiment: Oxidized phospholipids in lungs of PR8-infected mice (MALDI-IMS). The assay is classed as in vivo, mouse. As to conditions: PR8-infected mice with or without treatment. The text has this:
To assess the effect of eritoran on production of oxidized phospholipids during infection, MALDI-IMS was used to identify alterations in the lipid composition of mouse lungs after PR8, with or without eritoran treatment. […] (FIG. 10a). Results are representative of 4 replicate experiments. The structures of abundant phosphatidylcholine (PC) and predicted oxidized phosphatidylcholine (OxPC) molecules and molecular weights: 1-palmitoyl-2-linoleoyl PC (PLPC) m/z 757.6, 1-palmitoyl-2-arachadonyl PC (PAPC) m/z 782.1, and predicted structures of oxidized PC molecules and molecular weight, 1-palmitoyl-2-(9-oxo)nonanoyl PC (PONPC) m/z 649.4, (PEIPC) 1-palmitoyl-2-(5,6-epoxyisoprostance E2 oyl) PC m/z 828.1 are shown. (FIG. 10b).

The subject of assay [7] is PR8. As to the kind of experiment: Influenza-induced serum liver enzyme levels (ALT, AST) in PR8-infected mice. The assay is classed as in vivo, C57BL/6J WT mice. The settings on record: 200 μg/mouse i.v. starting on day 2; serum day 7. The protocol:
Mice infected i.n. with 50 μl of PR8 (˜7500 TCID50/mouse). Mice injected i.v. with 100 μl of eritoran (200 μg/mouse) starting on day 2 post-infection. Serum was collected on day 7 from C57BL/6J WT mice that were either mock-infected with saline or infected with PR8 and were either left untreated or were treated with eritoran starting on day 2 post-infection. Alanine aminotransaminase (ALT) and aspartate aminotransaminase (AST) were measured (Siemens Healthcare Diagnostics, Ltd.). […] Data represent 2 separate experiments with 4 mice per treatment per experiment.

On to `CCCCCC/C=C\CCCCCCCCCC(=O)N[C@H]1[C@H](OC[C@H]2O[C@H](OP(=O)(O)O)[C@H](NC(=O)CC(=O)CCCCCCCCCCC)[C@@H](OCCCCCCCCCC)[C@@H]2O)O[C@H](COC)[C@@H](OP(=O)(O)O)[C@@H]1OCC[C@@H](CCCCCCC)OC` [eritoran, α-D-Glucopyranose, 3-O-decyl-2-deoxy-6-O-[2-deoxy-3-O-[(3R)-3-methoxydecyl)-6-O-methyl-2-[[(-11Z)-1-oxo-11-octadecenyl)amino]-4-O-phosphono-β-D-glucopyranosyl]-2-[(1,3-dioxotetradecyl)amino]-1-(dihydrogen phosphate)], for which, on TLR4, the “TLR4-dependent cell activation by OxPAPC (IL-6 gene expression)” value was “substantially inhibited”. The “cytokine gene expression in lung” value in the assay on PR8 [1] (days 2, 4, 6 post-infection) is given as “significantly reduced cytokine gene expression at each time point”. For the same compound, in the assay on PR8 [1] (depends on interferon species), the “interferon production (mRNA) in lung” value is on record as “variable levels of interferon production compared to control mice”. In the assay with influenza, the “protection (survival) in TLR2−/− or CD14−/− mice” value is listed as “ineffective at inducing protection”. Moreover, in the assay with PR8 [2], the “protection (survival) in IFNβ−/− mice” value is “does not induce protection”. For the same compound, the “lung sections nearly normal” value with PR8 [3] was ~80 % of lung sections. Besides, the “lung sections showing inflammatory infiltrates” value in the assay with PR8 [3] is given as ~20 % of lung sections. For the same compound, the Titer in [4] (Experiment 1, 10 ng/mL applied 1 hour prior to virus) is listed as 1.0 × 10^6 TCID50/ml; in assay [4] (Experiment 1, 10 ng/mL applied at the same time as virus), 3.1 × 10^6 TCID50/ml; in assay [4] (Experiment 2, 10 ng/mL applied 1 hour prior to virus) it was 3.4 × 10^5 TCID50/ml; in assay [4] (Experiment 2, 10 ng/mL applied at the same time as virus), 6.3 × 10^6 TCID50/ml. The “lung viral titers on day 7” value with PR8 [5] (day 7 post-infection) is given as “further decreased”. The lung viral titers result with PR8 [5] (lungs harvested days 2, 4, 6) was “statistically significant decrease in lung viral titers”. The “oxidation products of phospholipids in lung” value in the assay with PR8 [6] was “detected in greater abundance and intensity in PR8-infected versus mice that were treated with eritoran”. Also, the “liver enzyme levels (ALT, AST) in serum” value in the assay with PR8 [7] is “lower levels of liver enzymes post-infection”.

These data come from patent publication US9132141B2 (priority 2012, dated 2015).
